ChEMBL document CHEMBL5532696, “Discovery of new tricyclic spiroindole derivatives as potent P-glycoprotein inhibitors for reversing multidrug resistance enabled by a synthetic methodology-based library” (RSC Med Chem, 2024)
The source made the active and inactive calls. The rule behind the calls is not given here.

Key:
Eca-109/VCR [1] = assay: Antiproliferative activity against human Eca-109/VCR cells assessed as cell viability at 5 uM incubated for 48 hrs by CCK-8 assay (reference value: 100 +/- 1.8%); type: functional; settings: read-out: Activity
Eca-109/VCR [2] = assay: Reversal of vincristine resistance in human Eca-109/VCR cells assessed as reversal fold by measuring ratio of vincristine IC50 to vincristine IC50 in presence of test compound at 5 uM incubated for 48 hrs by CCK8 assay; type: functional
Eca-109/VCR [3] = assay: Antiproliferative activity against human Eca-109/VCR cells assessed as reduction in cell viability at 10 uM incubated for 48 hrs by CCK-8 assay; type: functional, cell-based
Eca-109/VCR [4] = assay: Inhibition of colony formation in human Eca-109/VCR cells at 0 to 2 uM incubated for 48 hrs by crystal violet staining based assay; type: functional, cell-based; settings: dose 0-2 µM
Eca-109/VCR [5] = assay: Inhibition of colony formation in human Eca-109/VCR cells assessed as reduction in number of colonies incubated for 48 hrs in presence of vincristine by crystal violet staining based assay; type: functional, cell-based; settings: dose 0-2 µM
Eca-109/VCR [6] = assay: Induction of apoptosis in human Eca-109/VCR cells assessed as viable cells at 1 uM incubated for 48 hrs by Annexin V-FITC/DAPI staining based flow cytometry analysis (reference value: 94.6 %); type: functional; settings: read-out: Activity
Eca-109/VCR [7] = assay: Induction of apoptosis in human Eca-109/VCR cells assessed as early apoptotic cells at 1 uM incubated for 48 hrs by Annexin V-FITC/DAPI staining based flow cytometry analysis (reference value: 0.97 %); type: functional
Eca-109/VCR [8] = assay: Induction of apoptosis in human Eca-109/VCR cells assessed as late apoptotic cells at 1 uM incubated for 48 hrs by Annexin V-FITC/DAPI staining based flow cytometry analysis (reference value: 4.31 %); type: functional
Eca-109/VCR [9] = assay: Induction of apoptosis in human Eca-109/VCR cells assessed as necrotic cells at 1 uM incubated for 48 hrs by Annexin V-FITC/DAPI staining based flow cytometry analysis (reference value: 0.073 %); type: functional
Eca-109/VCR [10] = assay: Induction of apoptosis in human Eca-109/VCR cells assessed as viable cells at 5 uM incubated for 48 hrs by Annexin V-FITC/DAPI staining based flow cytometry analysis (reference value: 94.6 %); type: functional; settings: read-out: Activity
Eca-109/VCR [11] = assay: Induction of apoptosis in human Eca-109/VCR cells assessed as early apoptotic cells at 5 uM incubated for 48 hrs by Annexin V-FITC/DAPI staining based flow cytometry analysis (reference value: 0.97 %); type: functional
Eca-109/VCR [12] = assay: Induction of apoptosis in human Eca-109/VCR cells assessed as late apoptotic cells at 5 uM incubated for 48 hrs by Annexin V-FITC/DAPI staining based flow cytometry analysis (reference value: 4.31 %); type: functional
Eca-109/VCR [13] = assay: Induction of apoptosis in human Eca-109/VCR cells assessed as necrotic cells at 5 uM incubated for 48 hrs by Annexin V-FITC/DAPI staining based flow cytometry analysis (reference value: 0.073 %); type: functional
Eca-109/VCR [14] = assay: Induction of apoptosis in human Eca-109/VCR cells assessed as viable cells at 1 uM incubated for 48 hrs in presence of vincristine at 50 nM by Annexin V-FITC/DAPI staining based flow cytometry analysis (reference value: 93.5 %); type: functional; settings: read-out: Activity
Eca-109/VCR [15] = assay: Induction of apoptosis in human Eca-109/VCR cells assessed as early apoptotic cells at 1 uM incubated for 48 hrs in presence of vincristine at 50 nM by Annexin V-FITC/DAPI staining based flow cytometry analysis (reference value: 1.33 %); type: functional
Eca-109/VCR [16] = assay: Induction of apoptosis in human Eca-109/VCR cells assessed as late apoptotic cells at 1 uM incubated for 48 hrs in presence of vincristine at 50 nM by Annexin V-FITC/DAPI staining based flow cytometry analysis (reference value: 5.06 %); type: functional
Eca-109/VCR [17] = assay: Induction of apoptosis in human Eca-109/VCR cells assessed as necrotic cells at 1 uM incubated for 48 hrs in presence of vincristine at 50 nM by Annexin V-FITC/DAPI staining based flow cytometry analysis (reference value: 0.062 %); type: functional
Eca-109/VCR [18] = assay: Induction of apoptosis in human Eca-109/VCR cells assessed as viable cells at 5 uM incubated for 48 hrs in presence of vincristine at 50 nM by Annexin V-FITC/DAPI staining based flow cytometry analysis (reference value: 93.5 %); type: functional; settings: read-out: Activity
Eca-109/VCR [19] = assay: Induction of apoptosis in human Eca-109/VCR cells assessed as early apoptotic cells at 5 uM incubated for 48 hrs in presence of vincristine at 50 nM by Annexin V-FITC/DAPI staining based flow cytometry analysis (reference value: 1.33 %); type: functional
Eca-109/VCR [20] = assay: Induction of apoptosis in human Eca-109/VCR cells assessed as late apoptotic cells at 5 uM incubated for 48 hrs in presence of vincristine at 50 nM by Annexin V-FITC/DAPI staining based flow cytometry analysis (reference value: 5.06 %); type: functional
Eca-109/VCR [21] = assay: Induction of apoptosis in human Eca-109/VCR cells assessed as necrotic cells at 5 uM incubated for 48 hrs in presence of vincristine at 50 nM by Annexin V-FITC/DAPI staining based flow cytometry analysis (reference value: 0.062 %); type: functional
Eca-109/VCR [22] = assay: Effect on ABCG2 protein expression in human Eca-109/VCR cells at 5 to 10 uM incubated for 24 hrs by Western blotting analysis; type: functional, cell-based; settings: dose 5-10 µM
Eca-109/VCR [23] = assay: Reversal of vincristine resistance in human Eca-109/VCR cells assessed as effect on P-gp protein expression at 5 to 10 uM incubated for 24 hrs by Western blotting analysis; type: functional, cell-based; settings: dose 5-10 µM
Eca-109/VCR [24] = assay: Effect on MRP1 protein expression in human Eca-109/VCR cells at 5 to 10 uM incubated for 24 hrs by Western blotting analysis; type: functional, cell-based; settings: dose 5-10 µM
[25] = Reversal of vincristine resistant in human Eca-109/VCR cells assessed as reversal fold by measuring ratio of mitoxantrone IC50 to mitoxantrone IC50 in presence of test compound at 5 uM incubated for 48 hrs by CCK8 assay; type: functional
[26] = Reversal of vincristine resistant in human Eca-109/VCR cells assessed as reversal fold by measuring ratio of colchicine IC50 to colchicine IC50 in presence of test compound at 5 uM incubated for 48 hrs by CCK8 assay; type: functional
[27] = Reversal of vincristine resistant in human Eca-109/VCR cells assessed as reversal fold by measuring ratio of docetaxel IC50 to docetaxel IC50 in presence of test compound at 5 uM incubated for 48 hrs by CCK8 assay; type: functional
[28] = Reversal of vincristine resistant in human Eca-109/VCR cells assessed as reversal fold by measuring ratio of doxorubicin IC50 to doxorubicin IC50 in presence of test compound at 5 uM incubated for 48 hrs by CCK8 assay; type: functional
[29] = Reversal of vincristine resistant in human Eca-109/VCR cells assessed as reversal fold by measuring ratio of lapatinib IC50 to lapatinib IC50 in presence of test compound at 5 uM incubated for 48 hrs by CCK8 assay; type: functional

Q: What does the source list for CN1C(=O)[C@@]2(c3cc(Cl)ccc31)[C@H](C(=O)NC(C)(C)C)[C@H]1c3ccc([N+](=O)[O-])cc3C(=O)[C@H]1[C@@H]2c1ccccc1?
A: viability at 5 µM (Eca-109/VCR [1]): 98.9%; Ratio IC50 (Eca-109/VCR [2]): 727.2; Activity (Eca-109/VCR [3]): inactive; inhibition (Eca-109/VCR [4]): inactive; inhibition (Eca-109/VCR [5]): Dose-Dependent Effect; viability at 1 µM (Eca-109/VCR [6]): 93.9%; Activity (Eca-109/VCR [7]): 1.27%; Activity (Eca-109/VCR [8]): 4.73%; Activity (Eca-109/VCR [9]): 0.082%; viability at 5 µM (Eca-109/VCR [10]): 94.6%; Activity (Eca-109/VCR [11]): 1.19%; Activity (Eca-109/VCR [12]): 4.19%; Activity (Eca-109/VCR [13]): 0.064%; viability at 1 µM (Eca-109/VCR [14]): 91.3%; Activity (Eca-109/VCR [15]): 0.99%; Activity (Eca-109/VCR [16]): 7.54%; Activity (Eca-109/VCR [17]): 0.15%; viability at 5 µM (Eca-109/VCR [18]): 77.5%; Activity (Eca-109/VCR [19]): 17.9%; Activity (Eca-109/VCR [20]): 4.28%; Activity (Eca-109/VCR [21]): 0.31%; Activity (Eca-109/VCR [22]): inactive; Activity (Eca-109/VCR [23]): inactive; Activity (Eca-109/VCR [24]): inactive; Ratio IC50 [25]: 12; Ratio IC50 [26]: 139.7; Ratio IC50 [27]: 313.8; Ratio IC50 [28]: 121; Ratio IC50 [29]: 1.4
